In this assay the test system is CD2F1 mice, intracerebral L1210 leukemia, survival T/C. The assay can be described thus: NCI In Vivo Anticancer Drug Screen. Data for tumor model L1210 Leukemia (intracerebral) in CD2F1 (CDF1) mice. To be noted: higher = longer survival. The protocol: The antitumor activity of compounds was measured in mice bearing transplantable tumors. Survival or tumor size were measured and the results are expressed as the measurement made in the treated group (T) divided by the measurement made in the vehicle treated control group (C). The tumor model used in this assay is L1210 Leukemia (intracerebral) in CD2F1 (CDF1) mice

The mark [1] stands for this setting: endpoint: median survival time, dose: 8.0 mg/kg/injection, schedule: Q01DX009 (ip), vehicle: saline with Tween-80.
Where [2] appears, read: endpoint: median survival time, dose: 16.0 mg/kg/injection, schedule: Q01DX009 (ip), vehicle: saline with Tween-80.
Where [3] appears, read: endpoint: median survival time, dose: 32.0 mg/kg/injection, schedule: Q01DX009 (ip), vehicle: saline with Tween-80.
Where [4] appears, read: endpoint: median survival time, dose: 64.0 mg/kg/injection, schedule: Q01DX009 (ip), vehicle: saline with Tween-80.
Where [5] appears, read: endpoint: median survival time, dose: 128.0 mg/kg/injection, schedule: Q01DX009 (ip), vehicle: saline with Tween-80.
[6] abbreviates: endpoint: median survival time, dose: 256.0 mg/kg/injection, schedule: Q01DX009 (ip), vehicle: saline with Tween-80.
The mark [7] stands for this setting: endpoint: median survival time, dose: 8.0 mg/kg/injection, schedule: Q01DX001 (ip), vehicle: saline + alcohol.
[8] abbreviates: endpoint: median survival time, dose: 16.0 mg/kg/injection, schedule: Q01DX001 (ip), vehicle: saline + alcohol.

Where “and” joins values, the source holds several entries; their conditions need not be identical. Equal entries are not always repeated. Toxic doses and inconclusive results are not listed.

Regarding `C#C[C@]1(O)CC[C@H]2[C@@H]3CCc4cc(O)ccc4[C@H]3CC[C@@]21C`, the T/C was 100 % of control and 104 % of control under setting [1]; 96 % of control and 98 % of control under setting [2]; 97 % of control and 101 % of control under setting [3]; 100 % of control and 101 % of control under setting [4]; 93 % of control and 101 % of control under setting [5]; 86 % of control and 101 % of control under setting [6].
`COC(=O)c1ccccc1N=NN(C)C`: the T/C is, setting by setting: (endpoint: mean survival time, dose: 2.5 mg/kg/injection, schedule: Q01DX007 (ip), vehicle: other) 91 % of control; (endpoint: mean survival time, dose: 5.0 mg/kg/injection, schedule: Q01DX007 (ip), vehicle: other) 100 % of control; (endpoint: mean survival time, dose: 10.0 mg/kg/injection, schedule: Q01DX007 (ip), vehicle: other) 106 % of control.
Regarding `O=NN(CCCl)C(=O)NC1CCC(=O)NC1=O` (centres undefined), the T/C (endpoint: median survival time, dose: 2.0 mg/kg/injection, schedule: Q01DX001 (ip), vehicle: saline + alcohol) was 112 % of control; the T/C (endpoint: median survival time, dose: 8.0 mg/kg/injection, schedule: Q01DX001 (ip), vehicle: DMSO) is 602 % of control; the T/C under setting [7] is 192 % of control; the T/C (endpoint: median survival time, dose: 8.0 mg/kg/injection, schedule: Q01DX001 (oral), vehicle: saline + alcohol) was 168 % of control; the T/C (endpoint: median survival time, dose: 16.0 mg/kg/injection, schedule: Q01DX001 (ip), vehicle: DMSO) is 215 % of control; the T/C under setting [8] was 224 % of control. Further, the T/C reads like this: (endpoint: median survival time, dose: 16.0 mg/kg/injection, schedule: Q01DX001 (oral), vehicle: saline + alcohol) 236 % of control; (endpoint: median survival time, dose: 32.0 mg/kg/injection, schedule: Q01DX001 (ip), vehicle: DMSO) 95 % of control; (endpoint: median survival time, dose: 32.0 mg/kg/injection, schedule: Q01DX001 (ip), vehicle: saline + alcohol) 389 % of control; (endpoint: median survival time, dose: 32.0 mg/kg/injection, schedule: Q01DX001 (oral), vehicle: saline + alcohol) 164 % of control; (endpoint: median survival time, dose: 64.0 mg/kg/injection, schedule: Q01DX001 (oral), vehicle: saline + alcohol) 97 % of control.
Regarding `NC(=O)CNC1=C(N2CC2)C(=O)C(NCC(N)=O)=C(N2CC2)C1=O`, the T/C (endpoint: mean survival time, dose: 2.5 mg/kg/injection, schedule: Q01DX009 (ip), vehicle: saline) was 101 % of control and 116 % of control; the T/C (endpoint: mean survival time, dose: 5.0 mg/kg/injection, schedule: Q01DX009 (ip), vehicle: saline) is 110 % of control and 113 % of control; the T/C (endpoint: mean survival time, dose: 10.0 mg/kg/injection, schedule: Q01DX009 (ip), vehicle: saline) was 105 % of control and 116 % of control; the T/C (endpoint: mean survival time, dose: 15.0 mg/kg/injection, schedule: Q01DX009 (ip), vehicle: saline) was 101 % of control and 113 % of control.
As to `CN(C)N=Nc1ccc(C(N)=O)cc1`, the T/C is 104 % of control (endpoint: median survival time, dose: 8.0 mg/kg/injection, schedule: Q01DX005 (ip), vehicle: saline with Tween-80); 113 % of control (endpoint: median survival time, dose: 16.0 mg/kg/injection, schedule: Q01DX005 (ip), vehicle: saline with Tween-80); 121 % of control (endpoint: median survival time, dose: 32.0 mg/kg/injection, schedule: Q01DX005 (ip), vehicle: saline with Tween-80); 106 % of control (endpoint: median survival time, dose: 128.0 mg/kg/injection, schedule: Q01DX005 (ip), vehicle: saline with Tween-80).
Regarding `O=NN(CCCl)C(=O)NC1CCCCC1`, the T/C is, setting by setting: (endpoint: median survival time, dose: 4.0 mg/kg/injection, schedule: Q01DX001 (ip), vehicle: other) 112 % of control; under setting [7], 106 % of control; (endpoint: median survival time, dose: 16.0 mg/kg/injection, schedule: Q01DX001 (ip), vehicle: other) 177 % of control; under setting [8], 118 % of control; (endpoint: median survival time, dose: 32.0 mg/kg/injection, schedule: Q01DX001 (ip), vehicle: other) 415 % of control; (endpoint: median survival time, dose: 64.0 mg/kg/injection, schedule: Q01DX001 (ip), vehicle: saline + alcohol) 389 % of control. The T/C is 168 % of control (endpoint: median survival time, dose: 128.0 mg/kg/injection, schedule: Q01DX001 (ip), vehicle: saline + alcohol) and 90 % of control (endpoint: median survival time, dose: 256.0 mg/kg/injection, schedule: Q01DX001 (ip), vehicle: saline + alcohol).
`CC(=O)OC1(C)CC(C)C(=O)C(C(O)CC2CC(=O)NC(=O)C2)C1` (centres undefined): the T/C by setting is: (endpoint: mean survival time, dose: 0.04 mg/kg/injection, schedule: Q01DX009 (ip), vehicle: saline) 101 % of control; (endpoint: mean survival time, dose: 0.06 mg/kg/injection, schedule: Q01DX009 (ip), vehicle: saline) 101 % of control; (endpoint: mean survival time, dose: 0.13 mg/kg/injection, schedule: Q01DX009 (ip), vehicle: saline) 108 % of control; (endpoint: mean survival time, dose: 0.25 mg/kg/injection, schedule: Q01DX009 (ip), vehicle: saline) 111 % of control; (endpoint: mean survival time, dose: 0.5 mg/kg/injection, schedule: Q01DX009 (ip), vehicle: saline) 105 % of control.
As to `NC(=S)N/N=C/c1ccc(O)cn1`, the T/C (endpoint: median survival time, dose: 12.0 mg/kg/injection, schedule: Q01DX005 (ip), vehicle: saline) is 95 % of control and 105 % of control; the T/C (endpoint: median survival time, dose: 24.0 mg/kg/injection, schedule: Q01DX005 (ip), vehicle: saline) was 107 % of control and 115 % of control; the T/C (endpoint: median survival time, dose: 48.0 mg/kg/injection, schedule: Q01DX005 (ip), vehicle: saline) was 113 % of control and 117 % of control; the T/C (endpoint: median survival time, dose: 96.0 mg/kg/injection, schedule: Q01DX005 (ip), vehicle: saline) is 121 % of control.
On to `CC1CC(C)/C(=N/NC(N)=S)C(C(O)CC2CC(=O)NC(=O)C2)C1` (centres undefined), for which the T/C is 101 % of control (endpoint: mean survival time, dose: 25.0 mg/kg/injection, schedule: Q01DX009 (ip), vehicle: saline); 100 % of control (endpoint: mean survival time, dose: 50.0 mg/kg/injection, schedule: Q01DX009 (ip), vehicle: saline); 105 % of control (endpoint: mean survival time, dose: 100.0 mg/kg/injection, schedule: Q01DX009 (ip), vehicle: saline); 106 % of control (endpoint: mean survival time, dose: 200.0 mg/kg/injection, schedule: Q01DX009 (ip), vehicle: saline); 101 % of control (endpoint: mean survival time, dose: 400.0 mg/kg/injection, schedule: Q01DX009 (ip), vehicle: saline).
For `Cc1ncc(CO)c(C)c1O`, the T/C runs as follows: (endpoint: median survival time, dose: 128.0 mg/kg/injection, schedule: Q01DX005 (ip), vehicle: Klucel (hydroxypropylcellulose) (HPC)) 105 % of control and 106 % of control; (endpoint: median survival time, dose: 256.0 mg/kg/injection, schedule: Q01DX005 (ip), vehicle: Klucel (hydroxypropylcellulose) (HPC)) 111 % of control and 114 % of control.
Consider `O=P1(N(CCCl)CCCl)NCCCO1` (centres undefined), for which the T/C was 100 % of control (endpoint: median survival time, dose: 40.0 mg/kg/injection, schedule: Q01DX001 (ip), vehicle: saline); 104 % of control (endpoint: median survival time, dose: 80.0 mg/kg/injection, schedule: Q01DX001 (ip), vehicle: saline); 112 % of control (endpoint: median survival time, dose: 160.0 mg/kg/injection, schedule: Q01DX001 (ip), vehicle: saline); 105 % of control (endpoint: median survival time, dose: 320.0 mg/kg/injection, schedule: Q01DX001 (ip), vehicle: saline).
As to `CCC(=O)O[C@H]1CC[C@H]2[C@@H]3CCC4=CC(=O)CC[C@]4(C)[C@H]3CC[C@]12C`, the T/C was 121 % of control under setting [1]; 109 % of control (endpoint: median survival time, dose: 8.0 mg/kg/injection, schedule: Q01DX009 (ip), vehicle: saline); 110 % of control under setting [2]; 102 % of control (endpoint: median survival time, dose: 16.0 mg/kg/injection, schedule: Q01DX009 (ip), vehicle: saline); 118 % of control under setting [3]; 104 % of control (endpoint: median survival time, dose: 32.0 mg/kg/injection, schedule: Q01DX009 (ip), vehicle: saline). The T/C by setting is: under setting [4], 118 % of control; under setting [5], 110 % of control; (endpoint: median survival time, dose: 128.0 mg/kg/injection, schedule: Q01DX009 (ip), vehicle: saline) 224 % of control; under setting [6], 101 % of control; (endpoint: median survival time, dose: 256.0 mg/kg/injection, schedule: Q01DX009 (ip), vehicle: saline) 120 % of control; (endpoint: median survival time, dose: 512.0 mg/kg/injection, schedule: Q01DX009 (ip), vehicle: saline with Tween-80) 105 % of control. Further, the T/C (endpoint: median survival time, dose: 512.0 mg/kg/injection, schedule: Q01DX009 (ip), vehicle: saline) was 116 % of control.

(Values after PubChem BioAssay AID260 (DTP/NCI, 2004).)
